# Data taken from patent publication US20240270745A1, “ISOQUINOLINE ALKALOID COMPOUND, AND PREPARATION METHOD THEREFOR AND USE THEREOF” (SHANGHAI INSTITUTE OF MATERIA MEDICA, CHINESE ACADEMY OF …, priority 2021, published 2024).
# How the values were obtained:
# [1] = test system: IA current of hippocampal neurons; assay: Transient outward potassium current (IA) in hippocampal neurons; type: cell-based, SD rats; details: 1, 3 and 10 μM, FIG. 3
# Protocol: (§1) Whole-cell patch clamp recording was performed through a digital-to-analog converter, the Digidata 1440A (Axon CNS), and a patch clamp amplifier, the Axon patch 700B (Molecular Devices), and the borosilicate glass electrode used in the manual patch clamp experiment was pulled by a Sutter-P1000 electrode puller (Sutter) with a resistance about 3 MΩ. The bath solution was continuously perfused in speed of about 2 mL/min using a BPS perfusion system.
# (§2) The cell were clamped at a holding voltage of −50 mV, hyperpolarized to −110 mV, and then directly depolarized to 40 mV after 600 ms to record the whole cell potassium current (ITotal). To record the delayed […] rectifier potassium current (IK), the cells were first depolarized to −50 mV, maintained for 50 ms, and then depolarized to 40 mV. […]
# (§3) The data were processed through Clampfit 10.2, and imported into an Excel table for statistics, and then sorted and analyzed for their significant differences through GraphPad Prim5 software. […] All electrophysiological experiment data were expressed as mean±standard error (mean±S.E.M.).
# [2] = test system: sodium current in hippocampal neurons; assay: Sodium current in hippocampal neurons; type: cell-based, SD rats; details: 10 μM; membrane potential clamped at −90 mV
# Protocol: as §1
# 9 mg of protease (type XXIII, Sigma) was weighed in advance, 5 mg of bovine serum albumin (BSA, Shanghai Sangon) and 5 mg of trypsin inhibitor (Sigma-Aldrich) were weighed, and 3 mg/mL and 5 mg/mL enzyme and termination solutions were respectively prepared with a dissociation solution, and incubated at 32° C. water bath. 2 SD rats that were 1-7 days old (Shanghai Slack Experimental Animal Co., Ltd.) were decapitated and cut the cortex and skull to take out the complete brain, which was divided into two parts along the midline of the brain, and the hippocampus was located in the temporal lobe of the brain. The temporal lobe cortex was removed to expose the hippocampal gyrus for dissection. Then the hippocampus tissue was slightly moistened with the dissociation solution, and cut into thin slices transversely with a razor blade. […]
# [3] = target: T1, TRESK channel (Homo sapiens, UniProt Q7Z418); assay: TRESK channel current, transiently expressed in CHO-K1 cells (patch clamp); type: cell-based
# T1 construct: expressed in transfected cells; host or cells: CHO-K1 cells (ATCC), transient co-transfection with EGFP plasmid at 9:1
# T1 sequence (Q7Z418 1-384): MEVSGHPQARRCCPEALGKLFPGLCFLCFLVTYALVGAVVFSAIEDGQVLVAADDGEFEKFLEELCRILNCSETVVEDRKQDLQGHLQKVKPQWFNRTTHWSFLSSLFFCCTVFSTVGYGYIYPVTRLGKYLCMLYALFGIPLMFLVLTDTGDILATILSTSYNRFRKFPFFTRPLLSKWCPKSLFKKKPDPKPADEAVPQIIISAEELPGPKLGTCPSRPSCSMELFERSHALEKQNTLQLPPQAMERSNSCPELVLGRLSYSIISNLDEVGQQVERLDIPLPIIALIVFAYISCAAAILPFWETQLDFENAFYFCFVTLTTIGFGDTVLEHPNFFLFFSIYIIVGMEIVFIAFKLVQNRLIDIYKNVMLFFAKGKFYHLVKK
# Source text: (§4) First, TRESK plasmid (a kind gift from Professor Min LI of Johns Hopkins University) and Kv2.1 plasmid (a kind gift from Professor Min LI of Johns Hopkins University) were each co-transfected into CHO-K1 cells (ATCC) with green fluorescent protein EGFP plasmid (a kind gift from Professor Jia LI of SHANGHAI INSTITUTE OF MATERIA MEDICA, CHINESE ACADEMY OF SCIENCES) at a ratio of 9:1, and the cells with green fluorescence were selected under a fluorescence microscope to perform the experiments. The cells were clamped at −70 m V, first hyperpolarized to −130 mV, given a ramp depolarization stimulus to 20 mV, maintained for 100 ms, and then hyperpolarized to 0 mV to record the potassium channel current. 10 μM HJ-70 was administered by perfusion to test the drug efficacy thereof.
# [4] = test system: IK current of hippocampal neurons; assay: Delayed inward rectifier potassium current (IK) in hippocampal neurons; type: cell-based, SD rats; details: 1, 3 and 10 μM, FIG. 3
# Protocol: as §1
# as §2, with “mV. 10 μM HJ-70 was administered by perfusion to detect drug efficacy, and 5 mM TEA was administered as a positive control.” for “mV.”
# as §3
# [5] = test system: hippocampal neurons; assay: Spontaneous firing of cultured hippocampal neurons (patch clamp); type: cell-based, SD rats; details: 10 μM, FIG. 1 A and B
# Protocol: as §1
# Enzyme and termination solutions with the same concentration were prepared with PBS. 90% DMEM/F12 supplemented with 10% FBS, neuron culture medium (2% B-27, 1% penicillin and streptomycin mixture, Neurobasal-A supplemented with 0.5 mM 1% GlutaMAX), and enzyme and termination solutions (all purchased from Gibco) were preheated in advance. The slides were coated in a 24-well plate in advance with 20 μg/mL polylysine. All operations were performed in a biological safety cabinet. 3 newly born SD rats that were 1-3 days old were taken out the hippocampus according to the above method. The hippocampus was cut into pieces with microdissecting scissors and digested for 8 minutes in the enzyme solution, which was slightly shaken every 2-3 minutes to make the digestion even. […] The suspension was counted on a cell counter, and adjusted to a final concentration of 10^5 cells/mL. […]
# [6] = test system: formaldehyde-induced inflammatory pain; assay: Formalin-induced mouse inflammatory pain model; type: in vivo; details: mice, intraperitoneal injection 30 minutes before 1% formaldehyde; 60 minutes observation
# Protocol: A 10% formaldehyde solution was diluted 10 times to prepare a 1% formaldehyde solution. 5% DMSO, 5% Tween-80 and 90% normal saline (a 0.9% NaCl solution) were used to prepare solutions of HJ-70 in 100 mg/kg and 30 mg/kg. Each mouse was administered at a dose of 0.2 mL/10 g at 30 minutes before the experiment, and then 20 μL of 1% formaldehyde solution was injected into the sole of the foot through a microsampling needle to create a formalin model. The number of licking of hind paws, flicking of hind paws, and paw lifting, and the time of paw licking and prolonged paw lifting were recorded within 60 minutes. Paw licking was scored as 3, paw flicking was scored as 2, and paw lifting was scored as 1. The pain behavior score and time were calculated to determine the analgesic activity of HJ-70.
# [7] = test system: dorsal root ganglion (DRG) neurons; assay: Evoked action potential firing in dorsal root ganglion neurons (whole-cell patch clamp); type: cell-based, C57BL/6 mouse; details: 10 μM; 200 pA, 500 ms current stimulation; FIG. 1 C and D
# Source text: (§5) A 4- to 6-week old C57BL/6 mouse (Shanghai Slack Experimental Animal Co., Ltd.) was used for acute isolation of dorsal root ganglion neurons. First, the mouse was sacrificed by breaking the neck, and the surface skin was disinfected with 75% alcohol. The skin was cut from the neck to the buttocks, and the spine from the neck to the waist was cut, and placed in a pre-cooled phosphate buffer (PBS) (Hyclone Company) after excess muscles and blood clots were removed. The spine was cut longitudinally along the midline, and the white spinal cord and blood clots in the middle were removed by ophthalmic tweezers to expose the intervertebral foramen. The dorsal root ganglia were taken out by fine forceps, wherein the large ganglia at the waist should be stripped of their fibrous connections. Then the ganglia were cut into small pieces with microdissection scissors, added to 1 mL of a mixture of collagenase (1 mg/mL) and trypsin (0.25 mg/mL) (Sigma-Aldrich Company) for digestion for 15 min. Then a DMEM/F12 culture medium (Gibco Company) supplemented with 10% fetal calf serum was added thereto to terminate the digestion and dilute the resultant. The cells were pipetted repeatedly, and large tissue blocks were filtered out with a 70 μM cell filter. The remaining liquid was inoculated into a glass slide pre-coated with poly-lysine (Sigma-Aldrich), and cultured in an incubator at 5% CO2 and 37° C. […]
# [8] = test system: IA current in DRG neurons; assay: Transient outward potassium current (IA) in DRG neurons; type: cell-based, C57BL/6 mouse; details: whole-cell patch clamp; IA = total minus IK; 3 μM and 10 μM in FIG. 2
# Source text: as §5, with “min.” for “min. Then a DMEM/F12 culture medium (Gibco Company) supplemented with 10% fetal calf serum was added thereto to terminate the digestion and dilute the resultant. The cells were pipetted repeatedly, and large tissue blocks were filtered out with a 70 μM cell filter. The remaining liquid was inoculated into a glass slide pre-coated with poly-lysine (Sigma-Aldrich), and cultured in an incubator at 5% CO2 and 37° C.”
# as §3
# [9] = target: T2, Kv2.1 channel (Homo sapiens, UniProt Q14721); assay: Kv2.1 channel current, transiently expressed in CHO-K1 cells (patch clamp); type: cell-based; details: 10 μM, FIG. 5 A and B
# T2 construct: expressed in transfected cells; host or cells: CHO-K1 cells (ATCC), transient co-transfection with EGFP plasmid at 9:1
# T2 sequence (Q14721 1-858): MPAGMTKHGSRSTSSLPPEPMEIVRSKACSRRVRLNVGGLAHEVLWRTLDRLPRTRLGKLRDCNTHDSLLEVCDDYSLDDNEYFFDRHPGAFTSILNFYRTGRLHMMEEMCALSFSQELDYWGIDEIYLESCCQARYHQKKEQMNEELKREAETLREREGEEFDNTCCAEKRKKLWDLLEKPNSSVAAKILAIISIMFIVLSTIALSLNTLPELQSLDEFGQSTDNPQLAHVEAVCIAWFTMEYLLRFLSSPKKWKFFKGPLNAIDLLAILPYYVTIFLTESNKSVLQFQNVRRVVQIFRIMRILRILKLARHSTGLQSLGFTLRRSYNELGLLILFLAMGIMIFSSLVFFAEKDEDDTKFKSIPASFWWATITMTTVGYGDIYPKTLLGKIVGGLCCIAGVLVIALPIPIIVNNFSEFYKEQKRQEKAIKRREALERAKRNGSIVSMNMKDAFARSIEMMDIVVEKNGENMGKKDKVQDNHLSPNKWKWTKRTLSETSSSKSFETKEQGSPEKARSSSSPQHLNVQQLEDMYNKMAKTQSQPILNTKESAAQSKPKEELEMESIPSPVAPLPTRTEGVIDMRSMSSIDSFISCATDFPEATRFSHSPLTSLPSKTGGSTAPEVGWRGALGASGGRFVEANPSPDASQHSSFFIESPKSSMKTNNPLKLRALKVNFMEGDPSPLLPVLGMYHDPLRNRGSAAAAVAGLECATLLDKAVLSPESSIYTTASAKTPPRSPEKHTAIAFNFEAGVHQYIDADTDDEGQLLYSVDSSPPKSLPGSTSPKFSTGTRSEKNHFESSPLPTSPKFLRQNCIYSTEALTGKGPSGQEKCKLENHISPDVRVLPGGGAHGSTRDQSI
# Source text: as §4
# [10] = test system: IK current in DRG neurons; assay: Delayed inward rectifier potassium current (IK) in DRG neurons; type: cell-based, C57BL/6 mouse
# Source text: as §5, with “min.” for “min. Then a DMEM/F12 culture medium (Gibco Company) supplemented with 10% fetal calf serum was added thereto to terminate the digestion and dilute the resultant. The cells were pipetted repeatedly, and large tissue blocks were filtered out with a 70 μM cell filter. The remaining liquid was inoculated into a glass slide pre-coated with poly-lysine (Sigma-Aldrich), and cultured in an incubator at 5% CO2 and 37° C.”
# as §3
# [11] = test system: TASK1/TASK3 (KCNK3/KCNK9); details: in neurons; read-out: half-effective dose for inhibition of TASK1/TASK3 channels; cited from earlier work
# [12] = target: T3, TRESK (KCNK18) (Homo sapiens, UniProt Q7Z418); details: in neurons; read-out: half-effective dose for inhibition of TRESK channels; cited from earlier work
# T3 sequence (Q7Z418 1-384): T1 sequence (Q7Z418 1-384)
compound,measurement,setting,value
"O=c1c2ccccc2nc2n1CCc1c-2n(CCCO)c2ccccc12 [HJ-70, N-13-n-propanol rutaecarpine]",effect on IA current of hippocampal neurons,[1],without affecting
same,effect on sodium current in hippocampal neurons,[2],no effect
same,inhibition of TRESK channel current,"[3]; 10 μM, CHO-K1 cells, FIG. 5 C and D",almost completely inhibited
same,inhibitory activity on TRESK (K2P) compared with hydroxy-α-sanshool,[3]; comparison with reported half-effective dose of hydroxy-α-sanshool,stronger than that of hydroxy-α-sanshool
same,inhibition of IK current of hippocampal neurons,[4],reversibly and dose-dependently inhibited
same,effect on spontaneous firing of cultured hippocampal neurons,[5],significantly inhibit
same,"pain behavioral response induced by plantar injection of formalin (licking time, pain score)",[6],dose-dependently alleviate
same,effect on evoked action potential firing frequency of DRG,[7],significantly inhibited
same,effect on IA current in DRG neurons,[8],no significant effect
same,inhibition of Kv2.1 channel-mediated currents,[9],completely inhibited
same,reversibility of IK current inhibition after washout,"[10]; DRG neurons, washout, FIG. 2 G",completely eluted
same,inhibition of IK current in DRG neurons,"[10]; whole-cell patch clamp, 3 μM and 10 μM in FIG. 2",dose-dependently inhibited
C/C=C/C=C/C=C\CC/C=C/C(=O)NCC(C)(C)O [hydroxy-α-sanshool],IC50,[11],~50 µM
same,IC50,[12],~50 µM
